From US20250296942A1, “Phosphonate-Based Coordination Complexes and Methods of Preparation and Use Thereof” (University of Puerto Rico, priority 2021, published 2025)

Columns and labels:
[1] = Dissolution of ZOLE and ZOLE-based BPCCs in PBS (UV-Vis 208 nm); format: physicochemical
Protocol: Rate measurements were recorded for the reagent grade ZOLE, ZOLE-Ca forms I and II, ZOLE-Mg forms I and II, ZOLE-Zn forms I and II in PBS, against a reagent blank. […] Absorbance measurements were performed on an Agilent Technologies Cary Series UV-Vis Spectrophotometer, Cary 100 UV-Vis model; using the UV Cary Scan software version v.20.0.470. All measurements were performed with a 400-200 nm scan.
Dissolution of ZOLE-based BPCCs was compared to that of ZOLE (active ingredient of Reclast@), to assess the structural stability of these materials in PBS and FaSSGF.
(§4) Dissolution assays employed a maximum concentration of 0.05 mg/mL of ZOLE, which corresponded to the clinically utilized dosage of these BP.

[2] = Dissolution of ZOLE and ZOLE-Ca form II in FaSSGF; format: physicochemical
Protocol: For ZOLE and ZOLE-Ca form II, dissolution measurements were performed in fasted-state simulated gastric fluid (FaSSGF). […] Absorbance measurements were performed on an Agilent Technologies Cary Series UV-Vis Spectrophotometer, Cary 100 UV-Vis model; using the UV Cary Scan software version v.20.0.470. All measurements were performed with a 400-200 nm scan.
as §4
To further investigate if the ZOLE-based BPCCs presented pH-dependent degradation, dissolution of ZOLE-Ca Form II in FaSSGF was performed.

[3] = Hydroxyapatite (HA) binding assay of ZOLE and nano-Ca@ZOLE
Protocol: Hydroxyapatite (HA) binding assay: For the binding assay of nano-Ca@ZOLE, 20 mg of hydroxyapatite (HA) were exposed to 3 mL of a nano-Ca@ZOLE in PBS solution (0.5 mg/mL), for 0-11 days at 37° C. As control groups, nano-Ca@ZOLE and HA, both in PBS, were employed. As a comparative method, the binding assay for ZOLE “as received” was performed employing the same parameters as for the nanocrystals. For the experimental groups (HA-nano-Ca@ZOLE and HA-ZOLE), collection was performed in duplicate. Samples were collected each day for 11 consecutive days. After each time point, supernatant was collected and centrifuged (1,500 rpm, 8 min). Absorbance measurements were performed at 208 nm (λmax) to determine the percentage of ZOLE and nano-Ca@ZOLE bound to HA. Solid samples of HA, HA-ZOLE, and HA-nano-Ca@ZOLE were characterized by EDS.
The ability of nano-Ca@ZOLE to bind under simulated physiological conditions to the main constituent of the bone microenvironment, hydroxyapatite (HA), was probed through a binding assay. The binding to HA was determined by monitoring the decrease in the ZOLE concentration of the supernatant using absorption measurements (λmax=208 nm).

[4] = test system: human breast cancer MDA-MB-231 cell line; assay: AlamarBlue cytotoxicity, ZOLE and nano-Ca@ZOLE, MDA-MB-231; format: cell-based; details: for IC50: Homo sapiens
Protocol: (§1) Cell culture methods: The MDA-MB-231 cell line was cultured in DMEM, 1% Pen-Strep, and 10% FBS at 37° C. in 5% CO2. The hFOB 1.19 cell line was cultured in 1:1 DMEM:F-12, 0.3 mg/mL G418, and 10% FBS at 34° C. in 5% CO2. Cell passages were performed weekly at 80% of cell confluency, and media was exchanged twice a week.
(§2) Cell treatments: Both cell lines were treated with ZOLE (control) and nano-Ca@ZOLE (experimental). First, to determine the half-maximal inhibitory concentration (IC50) two-fold serial dilutions of ZOLE (0-200 μM) were prepared. Both cell lines (MDA-MB-231 and hFOB 1.19) were seeded in 96 well plates at 2.5×10^5 cell/mL. The cells were incubated for 24 h at 37° C. (MDA-MB-231) and 34° C. (hFOB 1.19), respectively. After an initial incubation period, both cell lines were treated with 100 μL of the ZOLE solutions previously prepared, and incubation was performed for 24, 48, and 72 h at the respective incubation temperatures. For both cell lines, media (MDA-MB-231: DMEM, Pen-Strep and hFOB 1.19: DMEM, F-12, G418) were used with control groups. AlamarBlue® assay was utilized to determine cell proliferation; for this, 10% of AlamarBlue® solution in PBS was prepared. Finally, media was removed from the 96 well plates, 100 μL of 10% AlamarBlue® solution was added, and the cells were incubated for 4 h at the conditions previously set forth herein. After the AlamarBlue® assay, fluorescence (λexc=560 nm, m=590 nm) was evaluated employing an Infinite M200 PRO Tecan Microplate Reader. Live cells were assessed comparing viability of the control group (100%) with cells treated with the ZOLE solutions. The nonlinear regression method using Graph Pad Prism 8 was applied to fit the dose-response curves (% cell live vs concentration) and determined the IC50 values for ZOLE.
(§3) The percentage of relative cell live (% RCL) for ZOLE (control) and nano-Ca@ZOLE (experimental) were investigated at selected concentrations (1.9, 3.8, 7.5, and 15 μM) in both cell lines. Treatments at these concentrations were carried out at 24, 48, and 72 h for ZOLE and nano-Ca@ZOLE. The cell seeding and AlamarBlue® assay were completed as described above for IC50 determination in both cell lines. Graph Pad Prism 8 was utilized to plot the % RCL found at concentrations of 1.9, 3.8, 7.5, and 15 μM after 24, 48, and 72 h of treatment. All experiments were performed in triplicates and the data was statistically treated using mean, standard deviation, and the coefficient of variation percentage (% CV).
In this Example, the human breast cancer MDA-MB-231 and the osteoblast-like hFOB 1.19 cell lines were selected to assess cytotoxicity effects of nano-Ca@ZOLE nanocrystals. […] While, the immortalized human fetal hFOB 1.19 cell line is a homogeneous model that allows the study of osteoblast differentiation, these cells were employed to imitate the normal human bone microenvironment. To determine the IC50 values against MDA-MB-231 and hFOB 1.19 cell lines, concentrations of 0-200 μM of ZOLE were employed.

[5] = test system: normal osteoblast-like hFOB 1.19 cell line; assay: AlamarBlue cytotoxicity, ZOLE and nano-Ca@ZOLE, hFOB 1.19; format: cell-based, human; details: for IC50: Homo sapiens
Protocol: as §1, §2, §3
In this Example, the human breast cancer MDA-MB-231 and the osteoblast-like hFOB 1.19 cell lines were selected to assess cytotoxicity effects of nano-Ca@ZOLE nanocrystals. […]

With O=P(O)(O)C(O)(Cn1ccnc1)P(=O)(O)O [ZOLE, zoledronic acid] the “time to reach maximum dissolution” value ([1]; PBS pH 7.4) was 30 min, the “dissolution / equilibrium solubility (maximum ZOLE released)” value ([1]; PBS pH 7.4, 37 °C) was 100% and the “time to reach maximum dissolution” value ([2]; FaSSGF pH 1.6) was 3 h. For the same molecule, the “dissolution / equilibrium solubility (maximum ZOLE released)” value ([2]; FaSSGF pH 1.6, 37 °C) was 100%, the “time to reach maximum binding to HA” value ([3]; PBS pH 7.4) was 8 days and the “maximum binding to HA” value ([3]; PBS pH 7.4, 37 °C, 0-11 days) was 82%. The “bound to HA” value ([3]; PBS pH 7.4, 37 °C, 1 day (24 h)) was 15%, the “% RCL (relative cell live)” value ([4]; 1.9 μM, time not stated) was about 100% and the “% RCL” value ([4]; 3.8 μM, time not stated) was about 100%. For the same molecule, the “% RCL” value ([4]; 15 μM, 48 h) was 80±2%, the “% RCL” value ([4]; 15 μM, 72 h) was 58±2% and the IC50 ([4]; 24 h) was over 200 µM. For the same molecule, the IC50 ([4]; 48 h) was over 200 µM, the IC50 ([4]; 72 h) was 35 µM and the “% RCL / cell death” value ([5]; 1.9-15 μM, 24, 48, 72 h) was “no significant cell death”. It also gave an IC50 ([5]; 24 h) of over 200 µM, an IC50 ([5]; 48 h) of 86 ± 3 µM and an IC50 ([5]; 72 h) of 49 ± 4 µM.
